# According to patent US20240181049A1, “HARNESSING THE POWER OF MICROBIOTA AND METABOLITES FOR THE TREATMENT OF CANCER” (UTI LIMITED PARTNERSHIP, priority 2019, published 2024):
# How the values were obtained:
# Type in all cases: cell-based, mice
# [1] = system: naïve OVA323-339-specific OT-II CD4^+ T cells; assay: BMDC / naive OT-II CD4+ T cell co-culture, Th1 differentiation; conditions: with IFN-γ
# Text: (§1) FIG. 4A-4K: Effect of inosine on T cell differentiation and dependency on classical dendritic cells of ICB therapy efficacy. (a) Scatter plot of untargeted metabolomics data in the serum of anti-CTLA-4 treated, tumor-bearing B.p. monocolonized compared to C.sp. monocolonized and germ-free (GF) mice. Grey circles or dotted grey circles depict inosine or inosine fragments/adducts, respectively. […] (c) Naïve CD4^+ T cells were co-cultured with bone marrow derived dendritic cells and IFN-γ. Quantification of T-bet^+CD3ε^+CD4^+ T cells 48 hours after co-culture in the presence or absence of inosine, A2A receptor inhibitor (ZM241385), cell permeable cAMP (db-cAMP) and protein kinase A inhibitor (RP-8-CPT-CAMPS). (d) Same as (c) without IFN-γ. (e) Representative plot and quantification (left and right panel) of phospho-CREB (Ser133) levels in naïve CD4^+ T cells cultured with anti-CD3/anti-CD28 coated beads for 1 hour in the presence or absence of inosine. (f) Schematic overview of experimental setup to deplete classical dendritic cells during MC38 tumor challenge and anti-CTLA-4 treatment. Intratumoral (g) frequency of CD8^+ T cells (h) IFN-γ^+CD8^+ T cells. (i and j) same as (g and h), but CD4^+ T cells and (k) tumor weight at […]. Data are mean±SEM and pooled from two individual experiments (a-b) n=5-8 samples/group (c-e) 10-15 biological replicates/group (f-k) 10 mice/group. *, P<0.05; **, P<0.01; ***, P<0.001; ****, P<0.0001
# Bone marrow derived dendritic cells (BMDCs) were generated from flushed bone marrow cells, maintained in RPMI-1640 (Sigma) supplemented with 10% FBS, 50 μm 2-Mercaptoethanol (Sigma) 100 units/ml penicillin, 100 μg/ml streptomycin sulfate and 20 ng/ml rm GM-CSF (R&D). Medium was exchanged after 48 hours and 72 hours. 5 days after culture, a magnetic cell sorting step was performed to enrich for CD11c^+ cells (Miltenyi Biotec). CD11c^+ cells were seeded in 96 flat bottom wells and pulsed with 20 ng/ml OVA323-339 and 100 ng/ml LPS (both Sigma) for 18 hours. In some conditions BMDCs were also cultured with 10 ng/ml rmIFN-γ (R&D).
# Negative selection magnetic cell sorting (Miltenyi Biotec) was used to enrich naïve OT-II CD4^+ T cells. Naïve OT-II CD4^+ T cells were then co-cultured with BMDCs at a ratio of 2:1 or stimulated with anti-CD3/anti-CD28 T cell activation beads (Thermofisher) at a ratio of 1:1 for 48 hours prior to restimulation with PMA/lonomycin in the presence of Brefeldin-A and analysis (see Single cell preparation and flow cytometry for details). In some conditions cells were additionally cultured with various combinations of 2 μg/ml anti-CTLA-4, 100 μM db-cAMP (Sigma), 5 μM ZM 241385 (Sigma), 300 μM Rp-8-CPT-CAMPS (Cayman Chemical) or 2 mM inosine (Sigma) as described previously (He et al., 2017; Yao et al., 2013).
# [2] = system: naïve CD4^+ T cells; assay: Naive CD4+ T cells with anti-CD3/anti-CD28 coated beads; conditions: levels of adenosine in the serum
# Text: as §1
# FIG. 16A-16J: Context dependent effect of inosine on Th1 T cell differentiation. (a) Naïve CD4^+ T cells were co-cultured with bone marrow derived dendritic cells without IFN-γ. Quantification of T-bet^+CD3e^+CD4^+ T cells 48 hours after co-culture in the presence or absence of inosine and anti-CTLA-4, as indicated. (b) Naïve CD4^+ T cells were cultured anti-CD3/anti-CD28 coated beads at a ratio of 1:1 without IFN-γ for 48 hours. Representative plot and quantification of IL12Rβ2 surface expression on CD4^+ T cells in the presence or absence of inosine (left and right panel). (c) Quantification of T-bet^+CD3e^+CD4^+ T cells 48 hours after co-culture in the presence or absence of inosine, db-cAMP and anti-CTLA-4 as indicated. (d) Naïve, A2AR-deficient CD4^+ T cells were cultured with anti-CD3/anti-CD28 coated beads at a ratio of 1:1 without IFN-γ. Quantification of T-bet^+CD3e^+CD4^+ T cells 48 hours after co-culture in the presence or absence of inosine or db-cAMP (e) Representative plot and quantification (left and right panel) of pCREB expression of anti-CD3/anti-CD28 bead co-cultured CD4^+ T cells in the presence or absence of inosine or db-cAMP 1 hour after stimulation. Analysis through flow cytometry. (f and g) Naïve, wild type CD4^+ T cells were cultured with anti-CD3/anti-CD28 coated beads at a ratio of 1:1. Il12rb2 and Ifng gene transcripts (normalized to Gapdh) were evaluated 24 and 48 hours following inosine (1 mM) stimulation. Expression was normalized to cells treated with medium. Analysis through quantitative PCR assay (h) Naïve CD4^+ T cells were cultured with anti-CD3/anti-CD28 coated beads at a ratio of 1:1 without IFN-γ for 24 hours. Then inosine or vehicle was added at the indicated concentrations for another 48 hours before T cell differentiation and activation was assessed. (i) Adenosine concentrations in the duodenal-, jejunal- or cecal content of B.p. monocolonized mice and in the serum of B.p. or C.sp. monocolonized anti-CTLA-4 treated mice. (j) Naïve CD4^+ T cells were cultured with anti-CD3/anti-CD28 coated beads at a ratio of 1:1 without IFN-γ for 24 hours. Adenosine or was added then in the indicated concentrations for another 48 hours followed by T cell differentiation and activation was assessed through flow cytometry. […]
# [3] = system: A2AR-deficient CD4^+ T cells; assay: A2AR-deficient naive CD4+ T cells with anti-CD3/anti-CD28 coated beads
# Experimental: FIG. 16A-16J: Context dependent effect of inosine on Th1 T cell differentiation. (a) Naïve CD4^+ T cells were co-cultured with bone marrow derived dendritic cells without IFN-γ. Quantification of T-bet^+CD3e^+CD4^+ T cells 48 hours after co-culture in the presence or absence of inosine and anti-CTLA-4, as indicated. (b) Naïve CD4^+ T cells were cultured anti-CD3/anti-CD28 coated beads at a ratio of 1:1 without IFN-γ for 48 hours. Representative plot and quantification of IL12Rβ2 surface expression on CD4^+ T cells in the presence or absence of inosine (left and right panel). (c) Quantification of T-bet^+CD3e^+CD4^+ T cells 48 hours after co-culture in the presence or absence of inosine, db-cAMP and anti-CTLA-4 as indicated. […] Quantification of T-bet^+CD3e^+CD4^+ T cells 48 hours after co-culture in the presence or absence of inosine or db-cAMP (e) Representative plot and quantification (left and right panel) of pCREB expression of anti-CD3/anti-CD28 bead co-cultured CD4^+ T cells in the presence or absence of inosine or db-cAMP 1 hour after stimulation. […] Il12rb2 and Ifng gene transcripts (normalized to Gapdh) were evaluated 24 and 48 hours following inosine (1 mM) stimulation. […] Analysis through quantitative PCR assay (h) Naïve CD4^+ T cells were cultured with anti-CD3/anti-CD28 coated beads at a ratio of 1:1 without IFN-γ for 24 hours. […]
structure (smiles),measurement,setting,value
"Nc1nc(NCCc2ccc(O)cc2)nc2nc(-c3ccco3)nn12 [ZM241385, reference compound]",effect of inosine on Th1 differentiation,[1]; inhibitor added (5 μM ZM 241385; 300 μM Rp-8-CPT-CAMPS),completely abrogated the effect of inosine
"Nc1ncnc2c1ncn2[C@@H]1O[C@H](CO)[C@@H](O)[C@H]1O [adenosine, reference compound]","Th1 activation and effector function, adenosine dose response",[2],insufficient to promote Th1 activation and effector function
"CCCC(=O)Nc1ncnc2c1ncn2[C@@H]1O[C@@H]2COP(=O)(O)O[C@H]2[C@H]1OC(=O)CCC [db-CAMP, reference compound]",Th1 differentiation,[1]; 100 μM db-cAMP,restored Th1 differentiation and bypassed the need for inosine
same,Th1 differentiation and phosphorylation of CREB,[3],increased Th1 differentiation and phosphorylation of CREB in A2AR-deficient T cells
